Data from patent publication US8563730B2, “Pyrazole and fused pyrazole glucokinase activators” (Takeda San Diego, Inc., priority 2008, dated 2013).
pEC50: −log10 of the molar value.

Target: T1, GK (glucokinase, residues 12-465) (Homo sapiens, UniProt P35557)
T1 construct: I.D. No. 1 corresponds to residues 12-465 of glucokinase; made in house; host or cells: DH10b-T1r E. coli
T1 sequence (P35557 with tags, fused parts or gaps isoform P35557-2): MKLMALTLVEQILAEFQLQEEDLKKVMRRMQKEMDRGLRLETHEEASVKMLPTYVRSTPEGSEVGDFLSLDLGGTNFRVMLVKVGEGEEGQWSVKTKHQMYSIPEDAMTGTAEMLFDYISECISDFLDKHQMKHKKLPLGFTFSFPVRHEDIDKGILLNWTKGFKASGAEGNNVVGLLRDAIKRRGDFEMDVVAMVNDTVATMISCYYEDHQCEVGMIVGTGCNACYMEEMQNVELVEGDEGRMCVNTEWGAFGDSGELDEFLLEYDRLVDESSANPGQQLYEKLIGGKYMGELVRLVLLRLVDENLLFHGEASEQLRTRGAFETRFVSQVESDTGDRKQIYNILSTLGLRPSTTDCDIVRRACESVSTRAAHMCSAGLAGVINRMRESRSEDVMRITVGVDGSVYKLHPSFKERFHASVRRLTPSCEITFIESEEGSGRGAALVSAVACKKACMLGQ
Assay: enzymatic glucokinase activity assay (ATP consumption, KinaseGlo luminescence)
Format: biochemical
Details: 5 μM ATP, 5 mM Glucose, reported as bins; for pEC50: Kact = concentration that displays 50% of the maximal increase in GK activity, 60 min, room temperature, read-out: pKact; for Emax: calculated maximal gain in GK enzyme activity at a saturating concentration of the compound, read-out: % ACTmax
Source text: The activity of compounds as glucokinase activators may be assayed in vitro, in vivo or in a cell line. Provided below is an enzymatic glucokinase activity assay.
Purified glucokinase may be obtained as follows. […] SEQ.
The expression of recombinant glucokinase protein may be carried out by transformation and growth of DH10b-T1r E. coli cells incorporating the (pFLAG-CTC) plasmid in LB media. Protein expression can be induced in this system by the addition of IPTG to the culture medium.
Recombinant protein may be isolated from cellular extracts by passage over Sepharose Q Fast Flow resin (Pharmacia). This partially purified GK extract may then be further purified by a second passage over Poros HQ10 (Applied Biosystems). The purity of GK may be determined on denaturing SDS-PAGE gel. Purified GK may then be concentrated to a final concentration of 20.0 mg/ml. After flash freezing in liquid nitrogen, the proteins can be stored at −78° C. in a buffer containing 25 mM TRIS-HCl pH 7.6, 50 mM NaCl, and 0.5 mM TCEP.
The activation properties of compounds for GK may be determined using a black 384-well-plate format under the following reaction conditions: 25 mM Hepes pH 7.2, 25 mM NaCl, 10 mM MgCl2, 0.01% Brij35, 1 mM DTT, 5 μM ATP, 5 mM Glucose 2% DMSO. The amount of ATP consumed may be determined quantitatively by addition of equal volume of luciferase reagent (luciferase+beetle luciferin—KinaseGlo Luminescent Kinase Assay kit from Promega). The luminescence intensity may be measured by using the Analyst HT from LJL Biosystems.
The reaction mixture may then be incubated at room temperature for 60 min, and quenched and developed by addition of 10 μL of luciferase reagent. Luminescence intensities of the resulting reaction mixtures may be measured after a 10 min incubation at room temperature. The luminescence intensity may be measured by using the Analyst HT from LJL Biosystems.
pKact and % ACTmax values may be calculated by non-linear curve fitting of the compound concentrations and luminescence intensities to a standard inhibition/activation equation.

| pEC50 | Emax [%] | Structure (SMILES) |
| --- | --- | --- |
| 4.90 to 5.40 | ≥ 111 | O=C(Nc1ncc(F)s1)C(CC1CCOCC1)n1cc(S(=O)(=O)C2CC2)cn1 (stereo not drawn) [Compound 28, 2-(4-(cyclopropylsulfonyl)-1H-pyrazol-1-yl)-N-(5-fluorothiazol-2-yl)-3-(tetrahydro-2H-pyran-4-yl)propanamide] |
| ≤ 4.80 | ≤ 90 | O=C(Nc1ncc(F)s1)[C@@H](CC1CCOCC1)n1cc(S(=O)(=O)C2CC2)cn1 [Compound 31, (R)-2-(4-(cyclopropylsulfonyl)-1H-pyrazol-1-yl)-N-(5-fluorothiazol-2-yl)-3-(tetrahydro-2H-pyran-4-yl)propanamide] |
| 4.90 to 5.40 | 101 to 105 | O=C(Nc1ncc(F)s1)[C@H](CC1CCOCC1)n1cc(S(=O)(=O)C2CC2)cn1 [Compound 32, (S)-2-(4-(cyclopropylsulfonyl)-1H-pyrazol-1-yl)-N-(5-fluorothiazol-2-yl)-3-(tetrahydro-2H-pyran-4-yl)propanamide] |
| 5.50 to 5.80 | ≥ 111 | O=C(Nc1ncc(Cl)s1)C(CC1CCCC1)n1cc(S(=O)(=O)C2CC2)cn1 (stereo not drawn) [Compound 33, N-(5-chlorothiazol-2-yl)-3-cyclopentyl-2-(4-(cyclopropylsulfonyl)-1H-pyrazol-1-yl)propanamide] |
| ≤ 4.80 | ≥ 111 | O=C(Nc1ncc(Cl)s1)[C@@H](CC1CCCC1)n1cc(S(=O)(=O)C2CC2)cn1 [Compound 38, (R)-N-(5-chlorothiazol-2-yl)-3-cyclopentyl-2-(4-(cyclopropylsulfonyl)-1H-pyrazol-1-yl)propanamide] |
| 5.50 to 5.80 | ≥ 111 | O=C(Nc1ncc(Cl)s1)[C@H](CC1CCCC1)n1cc(S(=O)(=O)C2CC2)cn1 [Compound 39, (S)-N-(5-chlorothiazol-2-yl)-3-cyclopentyl-2-(4-(cyclopropylsulfonyl)-1H-pyrazol-1-yl)propanamide] |
| ≤ 4.80 | ≤ 90 | O=C(Nc1ncc(Cl)s1)[C@@H](CC1CCOCC1)n1cc(S(=O)(=O)C2CC2)cn1 [Compound 40, (R)-N-(5-chlorothiazol-2-yl)-2-(4-(cyclopropylsulfonyl)-1H-pyrazol-1-yl)-3-(tetrahydro-2H-pyran-4-yl)propanamide] |
| 5.50 to 5.80 | ≥ 111 | O=C(Nc1ncc(Cl)s1)[C@H](CC1CCOCC1)n1cc(S(=O)(=O)C2CC2)cn1 [Compound 42, (S)-N-(5-chlorothiazol-2-yl)-2-(4-(cyclopropylsulfonyl)-1H-pyrazol-1-yl)-3-(tetrahydro-2H-pyran-4-yl)propanamide] |
| ≤ 4.80 | ≤ 90 | O=C(Nc1ncc(F)s1)[C@@H](CC1CCOCC1)n1cc(S(=O)(=O)C2CCCC2)cn1 [Compound 43, (R)-2-(4-(cyclopentylsulfonyl)-1H-pyrazol-1-yl)-N-(5-fluorothiazol-2-yl)-3-(tetrahydro-2H-pyran-4-yl)propanamide] |
| 5.90 to 6.40 | ≥ 111 | O=C(Nc1ncc(F)s1)[C@H](CC1CCOCC1)n1cc(S(=O)(=O)C2CCCC2)cn1 [Compound 44, (S)-2-(4-(cyclopentylsulfonyl)-1H-pyrazol-1-yl)-N-(5-fluorothiazol-2-yl)-3-(tetrahydro-2H-pyran-4-yl)propanamide] |
| 4.90 to 5.40 | ≥ 111 | O=C(Nc1ccc(Cl)cn1)C(CC1CCOCC1)n1cc(S(=O)(=O)C2CC2)cn1 (stereo not drawn) [Compound 45, N-(5-chloropyridin-2-yl)-2-(4-(cyclopropylsulfonyl)-1H-pyrazol-1-yl)-3-(tetrahydro-2H-pyran-4-yl)propanamide] |
| ≤ 4.80 | 101 to 105 | O=C(Nc1cnccn1)C(CC1CCOCC1)n1cc(S(=O)(=O)C2CC2)cn1 (stereo not drawn) [Compound 46, 2-(4-(cyclopropylsulfonyl)-1H-pyrazol-1-yl)-N-(pyrazin-2-yl)-3-(tetrahydro-2H-pyran-4-yl)propanamide] |
| 4.90 to 5.40 | ≥ 111 | O=C(Nc1ncc(Cl)s1)[C@@H](CC1CCOCC1)n1ncc2cc(S(=O)(=O)C3CC3)ccc21 [Compound 47, (R)-N-(5-chlorothiazol-2-yl)-2-(5-(cyclopropylsulfonyl)-1H-indazol-1-yl)-3-(tetrahydro-2H-pyran-4-yl)propanamide] |
| 5.90 to 6.40 | ≥ 111 | O=C(Nc1ncc(Cl)s1)[C@H](CC1CCOCC1)n1ncc2cc(S(=O)(=O)C3CC3)ccc21 [Compound 48, (S)-N-(5-chlorothiazol-2-yl)-2-(5-(cyclopropylsulfonyl)-1H-indazol-1-yl)-3-(tetrahydro-2H-pyran-4-yl)propanamide] |

Continued, compound first:

| Structure (SMILES) | pEC50 | Emax [%] |
| --- | --- | --- |
| COc1ccc2nc(NC(=O)C(CC3CCOCC3)n3cc(S(=O)(=O)C4CC4)cn3)sc2n1 (stereo not drawn) [Compound 24, 2-(4-(cyclopropylsulfonyl)-1H-pyrazol-1-yl)-N-(5-methoxythiazolo[5,4-b]pyridin-2-yl)-3-(tetrahydro-2H-pyran-4-yl)propanamide] | ≤ 4.80 | ≤ 90 |
| COc1ccc2nc(NC(=O)[C@@H](CC3CCOCC3)n3cc(S(=O)(=O)C4CC4)cn3)sc2n1 [Compound 25, (R)-2-(4-(cyclopropylsulfonyl)-1H-pyrazol-1-yl)-N-(5-methoxythiazolo[5,4-b]pyridin-2-yl)-3-(tetrahydro-2H-pyran-4-yl)propanamide] | ≤ 4.80 | ≤ 90 |
| COc1ccc2nc(NC(=O)[C@H](CC3CCOCC3)n3cc(S(=O)(=O)C4CC4)cn3)sc2n1 [Compound 26, (S)-2-(4-(cyclopropylsulfonyl)-1H-pyrazol-1-yl)-N-(5-methoxythiazolo[5,4-b]pyridin-2-yl)-3-(tetrahydro-2H-pyran-4-yl)propanamide] | ≤ 4.80 | ≤ 90 |
| Cc1nn(C(CC2CCOCC2)C(=O)Nc2ncc(F)s2)c(C)c1S(=O)(=O)C1CC1 (stereo not drawn) [Compound 27, 2-(4-(cyclopropylsulfonyl)-3,5-dimethyl-1H-pyrazol-1-yl)-N-(5-fluorothiazol-2-yl)-3-(tetrahydro-2H-pyran-4-yl)propanamide] | 5.50 to 5.80 | ≤ 90 |
| O=C(Nc1ncc(F)s1)C(CC1CCOCC1)n1cc(S(=O)(=O)c2ccc(Cl)cc2)cn1 (stereo not drawn) [Compound 29, 2-(4-(4-chlorophenylsulfonyl)-1H-pyrazol-1-yl)-N-(5-fluorothiazol-2-yl)-3-(tetrahydro-2H-pyran-4-yl)propanamide] | 5.90 to 6.40 | ≥ 111 |
| COc1ccc2nc(NC(=O)C(CC3CCOCC3)n3cc(S(=O)(=O)c4ccc(Cl)cc4)cn3)sc2n1 (stereo not drawn) [Compound 30, 2-(4-(4-chlorophenylsulfonyl)-1H-pyrazol-1-yl)-N-(5-methoxythiazolo[5,4-b]pyridin-2-yl)-3-(tetrahydro-2H-pyran-4-yl)propanamide] | 4.90 to 5.40 | ≤ 90 |
| O=C(Nc1ncc(F)s1)C(CC1CCCC1)n1cc(S(=O)(=O)C2CC2)cn1 (stereo not drawn) [Compound 34, 3-cyclopentyl-2-(4-(cyclopropylsulfonyl)-1H-pyrazol-1-yl)-N-(5-fluorothiazol-2-yl)propanamide] | 5.50 to 5.80 | ≥ 111 |
| O=C(Nc1ncc(F)s1)[C@@H](CC1CCCC1)n1cc(S(=O)(=O)C2CC2)cn1 [Compound 35, (R)-3-cyclopentyl-2-(4-(cyclopropylsulfonyl)-1H-pyrazol-1-yl)-N-(5-fluorothiazol-2-yl)propanamide] | ≤ 4.80 | ≤ 90 |
| O=C(Nc1ncc(F)s1)[C@H](CC1CCCC1)n1cc(S(=O)(=O)C2CC2)cn1 [Compound 36, (S)-3-cyclopentyl-2-(4-(cyclopropylsulfonyl)-1H-pyrazol-1-yl)-N-(5-fluorothiazol-2-yl)propanamide] | 5.50 to 5.80 | ≥ 111 |
| CS(=O)(=O)c1cccc2c1cnn2C(CC1CCOCC1)C(=O)Nc1ncc(F)s1 (stereo not drawn) [Compound 41, N-(5-fluorothiazol-2-yl)-2-(4-(methylsulfonyl)-1H-indazole-1-yl)-3-(tetrahydro-2H-pyran-4-yl)propanamide] | 5.50 to 5.80 | ≤ 90 |
